Assay results from patent publication US20250002487A1, “HETEROCYCLIC COMPOUNDS AND USES THEREOF” (Ventus Therapeutics U.S., Inc., priority 2021, published 2025).

Molecular target: human-cGAS (h-cGAS) (Homo sapiens, UniProt Q8N884)
Experiment: hcGAS Kinase-Glo Assay
Format: biochemical
Settings: 40 nM h-cGAS, 100 μM ATP, 100 μM GTP, 25 nM dsDNA, 3 h incubation, read-out: hcGAS potency IC50
Description: In some embodiments, the compounds of the instant disclosure may be tested for their human-cGAS (h-cGAS) inhibition activity using the methodology reported in Lama et al., “Development of human cGAS-specific small molecule inhibitors for repression of double stranded DNA (dsDNA)-triggered interferon expression”, Nature Communications 10, Article number: 2261 (2019), incorporated herein by reference. hcGAS Kinase-Glo Assay Compounds were tested for their human-cGAS (h-cGAS) inhibition activity using the methodology reported in Lama et al., “Development of human cGAS-specific small molecule inhibitors for repression of double stranded DNA (dsDNA)-triggered interferon expression”, Nature Communications 10. Article number: 2261 (2019), which is herein incorporated by reference in its entirety, with slight changes to some conditions as shown in Table B. The results of the assays, expressed in IC50 ranges are reported in Table C with the following designations: A represents an IC50 value <0.1 μM; B represents an IC50 value ≥0.1 μM and <0.5 μM; C represents an IC50 value ≥0.5 μM and <1.0 μM; D represents an IC50 value ≥1.0 μM. [table]

human-cGAS (h-cGAS), sequence (Q8N884 whole entry): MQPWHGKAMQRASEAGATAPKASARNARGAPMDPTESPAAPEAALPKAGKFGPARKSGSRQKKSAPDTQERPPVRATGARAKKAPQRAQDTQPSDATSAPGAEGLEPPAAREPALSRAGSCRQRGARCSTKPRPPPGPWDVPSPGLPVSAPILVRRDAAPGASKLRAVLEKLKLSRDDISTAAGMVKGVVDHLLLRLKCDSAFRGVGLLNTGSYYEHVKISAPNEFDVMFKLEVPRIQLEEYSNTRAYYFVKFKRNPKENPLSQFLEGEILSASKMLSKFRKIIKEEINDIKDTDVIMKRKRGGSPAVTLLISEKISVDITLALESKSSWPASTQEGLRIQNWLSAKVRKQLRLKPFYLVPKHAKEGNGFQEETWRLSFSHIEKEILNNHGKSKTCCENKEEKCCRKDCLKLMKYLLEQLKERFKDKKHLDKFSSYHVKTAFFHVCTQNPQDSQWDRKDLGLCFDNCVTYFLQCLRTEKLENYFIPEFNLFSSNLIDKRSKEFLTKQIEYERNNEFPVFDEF

| SMILES | IC50 |
| --- | --- |
| O=C(Nc1nnc(C(F)F)s1)c1onc2ccccc12 [Compound 18, N-(5-(difluoromethyl)-1,3,4-thiadiazol-2-yl)benzo[c]isoxazole-3-carboxamide] | ≥ 1000 nM |
| CSc1nnc(NC(=O)c2cc(-c3ccccc3-c3ccc(CC(=O)O)cc3)cc(=O)o2)s1 [Compound 176] | 500 to 1000 nM |
| O=C(Nc1nnc(-c2ccccc2)s1)c1onc2ccccc12 [Compound 19, N-(5-phenyl-1,3,4-thiadiazol-2-yl)benzo[c]isoxazole-3-carboxamide] | ≥ 1000 nM |
| CSc1nnc(NC(=O)c2cc(C3CCOCC3)no2)s1 [Compound 80, N-(5-(methylthio)-1,3,4-thiadiazol-2-yl)-3-(tetrahydro-2H-pyran-4-yl)isoxazole-5-carboxamide] | 500 to 1000 nM |
| CSc1nnc(NC(=O)c2nnc(-c3ccccn3)o2)s1 [Compound 106, N-(5-(methylthio)-1,3,4-thiadiazol-2-yl)-5-(pyridin-2-yl)-1,3,4-oxadiazole-2-carboxamide] | 500 to 1000 nM |
| CSc1nnc(NC(=O)c2nnn(-c3ccccc3)n2)s1 [Compound 66, N-(5-(methylthio)-1,3,4-thiadiazol-2-yl)-2-phenyl-2H-tetrazole-5-carboxamide] | 500 to 1000 nM |
| CSc1nnc(NC(=O)c2noc(N3CCCCC3)n2)s1 [Compound 101, N-[5-(methylthio)-1,3,4-thiadiazol-2-yl]-5-(piperidin-1-yl)-1,2,4-oxadiazole-3-carboxamide] | ≥ 1000 nM |
| O=C(Nc1ccccc1Cl)c1nnn2ccc(=O)[nH]c12 [Compound 97, N-(2-chlorophenyl)-5-oxo-4H-[1,2,3]triazolo[1,5-a]pyrimidine-3-carboxamide] | ≥ 1000 nM |
| O=C(Nc1nnc(-c2ccccc2Cl)s1)c1onc2c1ccc1cccnc12 [Compound 7, N-(5-(2-chlorophenyl)-1,3,4-thiadiazol-2-yl)isoxazolo[4,3-h]quinoline-3-carboxamide] | < 100 nM |
| CSc1nnc(NC(=O)c2nnc(N3CCCC3CO)o2)s1 (stereo not shown) [Compound 115, 5-[2-(hydroxymethyl)pyrrolidin-1-yl]-N-[5-(methylsulfanyl)-1,3,4-thiadiazol-2-yl]-1,3,4-oxadiazole-2-carboxamide] | 500 to 1000 nM |
| O=C(Nc1nnc(-c2cccc(Cl)c2Cl)s1)c1cc(O)no1 [Compound 57, N-(5-(2,3-dichlorophenyl)-1,3,4-thiadiazol-2-yl)-3-hydroxyisoxazole-5-carboxamide] | < 100 nM |
| O=C(Nc1nnc(-c2c(F)cccc2F)s1)c1onc2c1ccc1cccnc12 [Compound 8, N-(5-(2,6-difluorophenyl)-1,3,4-thiadiazol-2-yl)isoxazolo[4,3-h]quinoline-3-carboxamide] | 100 to 500 nM |
| CSc1nnc(NC(=O)c2nnn(Cc3ccccc3)n2)s1 [Compound 134, 2-benzyl-N-(5-(methylthio)-1,3,4-thiadiazol-2-yl)-2H-tetrazole-5-carboxamide] | ≥ 1000 nM |
| COCc1cc(C(=O)Nc2nnc(-c3ccccc3Cl)s2)on1 [Compound 170, N-(5-(2-chlorophenyl)-1,3,4-thiadiazol-2-yl)-3-(methoxymethyl)isoxazole-5-carboxamide] | 100 to 500 nM |
| O=C(Nc1nnc(-c2ccccc2F)s1)c1onc2ccccc12 [Compound 26, N-(5-(2-fluorophenyl)-1,3,4-thiadiazol-2-yl)benzo[c]isoxazole-3-carboxamide] | 100 to 500 nM |
| NC(=O)c1cc(C(=O)Nc2nnc(-c3ccccc3Cl)s2)on1 [Compound 32, N5-(5-(2-chlorophenyl)-1,3,4-thiadiazol-2-yl)isoxazole-3,5-dicarboxamide] | 100 to 500 nM |
| O=C(Nc1nnc(-c2cn[nH]c2)s1)c1onc2ccccc12 [Compound 145, N-(5-(1H-pyrazol-4-yl)-1,3,4-thiadiazol-2-yl)benzo[c]isoxazole-3-carboxamide] | ≥ 1000 nM |

The remaining lines, values ahead:

| IC50 | SMILES |
| --- | --- |
| ≥ 1000 nM | CSc1nnc(NC(=O)c2nnn3c2ccc2ccccc23)s1 [Compound 190, N-(5-(methylthio)-1,3,4-thiadiazol-2-yl)-[1,2,3]triazolo[1,5-a]quinoline-3-carboxamide] |
| 100 to 500 nM | CSc1nnc(NC(=O)c2cc(-c3ccccc3)c(C)c(=O)o2)s1 [Compound 203, 3-methyl-N-(5-(methylthio)-1,3,4-thiadiazol-2-yl)-2-oxo-4-phenyl-2H-pyran-6-carboxamide] |
| ≥ 1000 nM | CSc1nnc(NC(=O)c2ccc(-c3ccccc3)c(=O)o2)s1 [Compound 225, N-[5-(methylsulfanyl)-1,3,4-thiadiazol-2-yl]-6-oxo-5-phenylpyran-2-carboxamide] |
| 500 to 1000 nM | CSc1nnc(NC(=O)c2cc(-c3cncc4ccccc34)cc(=O)o2)s1 [Compound 256, 4-(4-isoquinolyl)-N-(5-methylsulfanyl-1,3,4-thiadiazol-2-yl)-6-oxo-pyran-2-carboxamide] |
| 500 to 1000 nM | CSc1nnc(NC(=O)c2onc3ccc(F)cc23)s1 [Compound 223, 5-fluoro-N-[5-(methylsulfanyl)-1,3,4-thiadiazol-2-yl]-2,1-benzoxazole-3-carboxamide] |
| 100 to 500 nM | CSc1nnc(NC(=O)c2cc(-c3ccccc3)cc(=O)o2)s1 [Compound 213, N-[5-(methylsulfanyl)-1,3,4-thiadiazol-2-yl]-6-oxo-4-phenylpyran-2-carboxamide] |
| ≥ 1000 nM | CSc1nnc(NC(=O)c2onc3ccc(Cc4c[nH]c(=O)c(O)c4)cc23)s1 [Compound 189, 5-((5-Hydroxy-6-oxo-1,6-dihydropyridin-3-yl)methyl)-N-(5-(methylthio)-1,3,4-thiadiazol-2-yl)benzo[c]isoxazole-3-carboxamide] |
| 500 to 1000 nM | COC(=O)c1ccc2c(C(=O)Nc3nnc(SC)s3)onc2c1 [Compound 278, methyl 3-((5-(methylthio)-1,3,4-thiadiazol-2-yl)carbamoyl)benzo[c]isoxazole-6-carboxylate] |
| 100 to 500 nM | CSc1nnc(NC(=O)c2cc(-c3ccccc3F)no2)s1 [Compound 217, 3-(2-fluorophenyl)-N-(5-(methylthio)-1,3,4-thiadiazol-2-yl)isoxazole-5-carboxamide] |
| 100 to 500 nM | CSc1nnc(NC(=O)c2cc(-c3cccc4cccnc34)cc(=O)o2)s1 [Compound 246, N-(5-methylsulfanyl-1,3,4-thiadiazol-2-yl)-6-oxo-4-(8-quinolyl)pyran-2-carboxamide] |
| 500 to 1000 nM | CSc1nnc(NC(=O)c2cc(-c3ccccc3-c3cccc(CC(=O)O)c3)cc(=O)o2)s1 [Compound 177, 2-(2′-(6-((5-(methylthio)-1,3,4-thiadiazol-2-yl)carbamoyl)-2-oxo-2H-pyran-4-yl)-[1,1′-biphenyl]-3-yl)acetic acid] |
| 100 to 500 nM | CSc1nnc(NC(=O)c2cc(-c3cccc(C)c3)cc(=O)o2)s1 [Compound 249, N-(5-methylsulfanyl-1,3,4-thiadiazol-2-yl)-4-(m-tolyl)-6-oxo-pyran-2-carboxamide] |
| 500 to 1000 nM | CSc1nnc(NC(=O)c2onc3c(Cl)cccc23)s1 [Compound 228, 7-chloro-N-[5-(methylsulfanyl)-1,3,4-thiadiazol-2-yl]-2,1-benzoxazole-3-carboxamide] |
| 500 to 1000 nM | CSc1nnc(NC(=O)c2onc3ccc(Cl)cc23)s1 [Compound 229, 5-chloro-N-[5-(methylsulfanyl)-1,3,4-thiadiazol-2-yl]-2,1-benzoxazole-3-carboxamide] |
